Tests used:
C4-2 cells = experiment: MTS assay, growth inhibition and cytotoxicity, virus alone or with adriamycin; format: cell-based; conditions: adriamycin alone 0.1 μg/ml; by 72 hours
Description: 3-(4,5)-Dimethylthiazol-2-yl)-5-(3-carboxy-methoxyphenyl)-2-(4-sulfophenyl)-2H-tetrazolium (MTS) assay: The metabolic viability of the cells was monitored using a MTS assay kit (CellTiter 96) from Promega (Madison, Wis.). Briefly cells are seeded onto 96-well plates and cultured in the presence of test agents for indicated time intervals. A mixture of MTS and phenazine methosulfate (an electron-coupling reagent; final concentrations 333 μg/ml and 25 μM, respectively) is added, and cells are incubated for 30 minutes at 37° C. Formazan formed from the reduction of MTS is quantified by measurement of absorbance of the medium at 490 nm using a microplate reader (All data have been normalized to the background signals).
Combinatory studies of Adriamycin with Ad5-RV004.21 or Ad5-RV004 virus in C4-2 cells: Combination treatment of viruses with radiation or chemotherapy hold promise as a new strategy for cancer treatment. However, there are reports of attenuated cytotoxicity of CRAds when combined with chemotherapies (e.g., doxorubicin). […] Cell cytotoxicity is measured by MTS assay after 72 hours of treatment and followed every 24 hours for a total of 7 days. […] The predicted value for the combinatory effect can be calculated and is given by the dotted gray line.

[1] = test system: p21/Waf-1 knockdown C4-2 cells; experiment: Cell death of p21/Waf-1 knockdown C4-2 cells treated with drug; format: cell-based

COc1cccc2c1C(=O)c1c(O)c3c(c(O)c1C2=O)C[C@@](O)(C(=O)CO)C[C@@H]3O[C@H]1C[C@H](N)[C@H](O)[C@H](C)O1 [adriamycin]
C4-2 cells killed (C4-2 cells): ~50% | cell death in p21/Waf-1 knockdown C4-2 cells compared to the wild type cell lines [1]: increase in cell death

Reference: patent publication US8859287B2, “Compositions and methods for treatment of cancer using tissue-specific oncolytic adenoviruses” (The Johns Hopkins University, priority 2009, dated 2014)
